Test results from PubChem BioAssay (NCI).
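GI50 = concentration required for 50% inhibition of growth. TGI: concentration producing complete growth inhibition.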

Tests used:
Experiment in all cases: NCI tumour cell line growth inhibition, 384-well format
[1] = system: TK-10 renal
[2] = system: UO-31 renal
[3] = system: MCF7 breast
[4] = system: HCT-116 colon
[5] = system: M14 melanoma
[6] = system: OVCAR-4 ovarian
[7] = system: 786-0 renal
[8] = system: NCI-H460 NSCLC
[9] = system: NCI-H23 lung
[10] = system: HOP-62 NSCLC
[11] = system: MDA-MB-231 breast
[12] = system: UACC-257 melanoma
[13] = system: A549 NSCLC
[14] = system: PC-3 prostate
[15] = system: OVCAR-8 ovarian
[16] = system: SK-MEL-2 melanoma
[17] = system: NCI-H226 lung
[18] = system: MALME-3M melanoma
[19] = system: A498 renal
[20] = system: UACC-62 melanoma
[21] = system: OVCAR-5 ovarian
[22] = system: K-562 leukemia
[23] = system: ACHN renal
[24] = system: MOLT-4 leukemia
[25] = system: RPMI-8226 leukemia
[26] = system: SF-539 CNS
[27] = system: HT29 colon
[28] = system: DU-145 prostate
[29] = system: SK-MEL-5 melanoma
[30] = system: T-47D breast
[31] = system: IGROV1 ovarian
[32] = system: SK-MEL-28 melanoma
[33] = system: OVCAR-3 ovarian
[34] = system: MDA-MB-468 breast
[35] = system: BT-549 breast
[36] = system: KM12 colon
[37] = system: U251 glioblastoma
[38] = system: SNB-19 CNS
[39] = system: HL-60(TB) leukemia
[40] = system: HCT-15 colon
[41] = system: MDA-MB-435 melanoma
[42] = system: HCC-2998 colon
[43] = system: SK-OV-3 ovarian
[44] = system: CCRF-CEM leukemia
[45] = system: LOX IMVI melanoma
[46] = system: NCI-H522 lung
[47] = system: NCI-H322M lung
[48] = system: HOP-92 NSCLC
[49] = system: SN12C renal
[50] = system: SF-295 CNS
[51] = system: SF-268 CNS
[52] = system: CAKI-1 renal
[53] = system: COLO 205 colon
[54] = system: SW-620 colon
[55] = system: RXF 393 renal
[56] = system: NCI/ADR-RES ovarian
[57] = system: SR leukemia
[58] = system: HS 578T breast
[59] = system: EKVX NSCLC
[60] = system: SNB-75 CNS

## COc1cccc2c1C(=O)c1c(O)c3c(c(O)c1C2=O)C[C@@](O)(/C(CO)=N/NC(=O)CCCCCN1C(=O)C=CC1=O)C[C@@H]3O[C@H]1C[C@H](N)[C@H](O)[C@H](C)O1
[1]
  GI50: 0.225 µM
  TGI: 1.04 µM
[2]
  GI50: 1.26 µM
  TGI: 3.13 µM
[3]
  GI50: 0.0936 µM
  TGI: 0.377 µM
[4]
  GI50: 0.0749 µM
  TGI: 0.626 µM
[5]
  GI50: 0.0726 µM
  TGI: 0.258 µM
[6]
  GI50: 0.243 µM
  TGI: 0.716 µM
[7]
  GI50: 0.11 µM
  TGI: 0.368 µM
[8]
  GI50: 0.0252 µM
  TGI: 0.136 µM
[9]
  GI50: 0.166 µM
  TGI: 0.381 µM
[10]
  GI50: 0.103 µM
  TGI: 0.273 µM
[11]
  GI50: 0.0625 µM
  TGI: 0.206 µM
[12]
  GI50: 0.18 µM
  TGI: 0.552 µM
[13]
  GI50: 0.098 µM
  TGI: 1.43 µM
[14]
  GI50: 0.407 µM
  TGI: 1.94 µM
[15]
  GI50: 0.141 µM
  TGI: 1.31 µM
[16]
  GI50: 0.101 µM
  TGI: 0.229 µM
[17]
  GI50: 0.122 µM
  TGI: 0.288 µM
[18]
  GI50: 0.152 µM
  TGI: 0.403 µM
[19]
  GI50: 0.0958 µM
  TGI: 1.44 µM
[20]
  GI50: 0.0759 µM
  TGI: 0.233 µM
[21]
  GI50: 0.522 µM
  TGI: 3 µM
[22]
  GI50: 0.114 µM
  TGI: 1.06 µM
[23]
  GI50: 0.258 µM
  TGI: 1.36 µM
[24]
  GI50: 0.0109 µM
  TGI: 0.023 µM
[25]
  TGI: 0.173 µM
[26]
  GI50: 0.0387 µM
  TGI: 0.14 µM
[27]
  GI50: 0.148 µM
  TGI: 0.78 µM
[28]
  GI50: 0.152 µM
  TGI: 0.365 µM
[29]
  GI50: 0.124 µM
  TGI: 0.328 µM
[30]
  GI50: 0.0615 µM
  TGI: 0.28 µM
[31]
  GI50: 0.346 µM
  TGI: 2.48 µM
[32]
  GI50: 0.126 µM
  TGI: 0.519 µM
[33]
  GI50: 0.159 µM
  TGI: 0.686 µM
[34]
  GI50: 0.0448 µM
  TGI: 0.169 µM
[35]
  GI50: 0.0599 µM
  TGI: 0.271 µM
[36]
  GI50: 0.116 µM
  TGI: 0.295 µM
[37]
  GI50: 0.0504 µM
  TGI: 0.188 µM
[38]
  GI50: 0.127 µM
  TGI: 0.553 µM
[39]
  GI50: 0.0151 µM
  TGI: 0.0294 µM
[40]
  GI50: 0.47 µM
  TGI: 3.11 µM
[41]
  GI50: 0.268 µM
  TGI: 1.48 µM
[42]
  GI50: 0.123 µM
  TGI: 0.294 µM
[43]
  GI50: 0.138 µM
  TGI: 0.339 µM
[44]
  GI50: 0.0153 µM
  TGI: 0.034 µM
[45]
  GI50: 0.166 µM
  TGI: 0.381 µM
[46]
  GI50: 0.0294 µM
  TGI: 0.148 µM
[47]
  GI50: 0.917 µM
  TGI: 2.68 µM
[48]
  GI50: 0.037 µM
  TGI: 0.247 µM
[49]
  GI50: 0.139 µM
  TGI: 0.391 µM
[50]
  GI50: 0.154 µM
  TGI: 0.47 µM
[51]
  GI50: 0.0714 µM
  TGI: 0.372 µM
[52]
  GI50: 0.155 µM
  TGI: 1.06 µM
[53]
  GI50: 0.0366 µM
  TGI: 0.183 µM
[54]
  GI50: 0.0593 µM
  TGI: 0.829 µM
[55]
  GI50: 0.0452 µM
  TGI: 0.228 µM
[56]
  GI50: 12.3 µM
  TGI: 44.9 µM
[57]
  TGI: 0.0157 µM

## CCOc1cc(-c2nncn2C)ccc1Nc1ncc2cc(C)nc(NCC(C)(C)C)c2n1
[58]
  GI50: 0.188 µM
  TGI: > 100 µM
[1]
  GI50: 3.89 µM
  TGI: > 100 µM
[2]
  GI50: 0.514 µM
  TGI: > 100 µM
[3]
  TGI: > 100 µM
[4]
  GI50: 0.062 µM
  TGI: > 100 µM
[6]
  GI50: > 100 µM
  TGI: > 100 µM
[7]
  GI50: 0.468 µM
  TGI: > 100 µM
[8]
  GI50: 0.169 µM
  TGI: > 100 µM
[10]
  GI50: 0.23 µM
  TGI: > 100 µM
[11]
  GI50: 47.8 µM
  TGI: > 100 µM
[12]
  GI50: > 100 µM
  TGI: > 100 µM
[13]
  GI50: 0.0992 µM
  TGI: > 100 µM
[14]
  GI50: 18 µM
  TGI: > 100 µM
[15]
  GI50: 0.377 µM
  TGI: > 100 µM
[16]
  GI50: > 100 µM
  TGI: > 100 µM
[17]
  GI50: 15.9 µM
  TGI: > 100 µM
[18]
  GI50: 37.1 µM
  TGI: > 100 µM
[19]
  GI50: 0.548 µM
  TGI: > 100 µM
[20]
  GI50: > 100 µM
  TGI: > 100 µM
[21]
  GI50: 1.33 µM
  TGI: > 100 µM
[22]
  GI50: 0.918 µM
  TGI: > 100 µM
[23]
  GI50: 1.77 µM
  TGI: > 100 µM
[24]
  GI50: 0.0223 µM
  TGI: 0.0463 µM
[25]
  GI50: 0.3 µM
  TGI: 3.77 µM
[26]
  GI50: 0.351 µM
  TGI: > 100 µM
[27]
  GI50: > 100 µM
  TGI: > 100 µM
[28]
  GI50: 0.365 µM
  TGI: > 100 µM
[29]
  GI50: 0.461 µM
  TGI: > 100 µM
[30]
  GI50: 7.93 µM
  TGI: > 100 µM
[31]
  GI50: > 100 µM
  TGI: > 100 µM
[32]
  GI50: > 100 µM
  TGI: > 100 µM
[33]
  GI50: 0.969 µM
  TGI: > 100 µM
[34]
  GI50: 0.578 µM
  TGI: 7.02 µM
[35]
  GI50: 0.85 µM
  TGI: > 100 µM
[36]
  GI50: 0.0967 µM
  TGI: > 100 µM
[37]
  GI50: 0.46 µM
  TGI: > 100 µM
[59]
  GI50: 2.05 µM
  TGI: > 100 µM
[38]
  GI50: 86.7 µM
  TGI: > 100 µM
[39]
  GI50: 0.266 µM
  TGI: 0.587 µM
[40]
  GI50: 0.0738 µM
  TGI: > 100 µM
[41]
  GI50: > 100 µM
  TGI: > 100 µM
[42]
  GI50: > 100 µM
  TGI: > 100 µM
[43]
  GI50: > 100 µM
  TGI: > 100 µM
[44]
  GI50: 0.0772 µM
  TGI: 0.278 µM
[45]
  GI50: 0.179 µM
  TGI: > 100 µM
[46]
  GI50: 0.669 µM
  TGI: > 100 µM
[47]
  GI50: > 100 µM
  TGI: > 100 µM
[48]
  GI50: > 100 µM
  TGI: > 100 µM
[60]
  GI50: > 100 µM
  TGI: > 100 µM
[49]
  GI50: > 100 µM
  TGI: > 100 µM
[50]
  GI50: > 100 µM
  TGI: > 100 µM
[51]
  GI50: 10.5 µM
  TGI: > 100 µM
[52]
  GI50: > 100 µM
  TGI: > 100 µM
[53]
  GI50: 0.196 µM
  TGI: > 100 µM
[54]
  GI50: 0.304 µM
  TGI: > 100 µM
[55]
  GI50: 1.34 µM
  TGI: 99.1 µM
[56]
  GI50: 0.618 µM
  TGI: > 100 µM
[57]
  GI50: 0.139 µM
  TGI: 0.333 µM
